Assay results: patent US20260262643A1, “HERBICIDAL BENZOXAZINES” (FMC CORPORATION, priority 2022, published 2026)

Key:
ragweed [1] = assay: Test A postemergence; assay type: in vivo, Ambrosia artemisiifolia; conditions: 0 to 100 scale; for Plant response rating, Ragweed: 1000 g ai/ha, Postemergence
Text: (§1) Seeds of plant species selected from barnyardgrass (Echinochloa crusgalli), blackgrass (Alopecurus myosuroides), corn (Zea mays), foxtail, giant (giant foxtail, Setaria faberi), goosegrass (Eleusine indica), kochia (Bassia scoparia), oat, wild (wild oat, Avena fatua), pigweed, palmer (palmer amaranth, palmer pigweed, Amaranthus palmeri), Pigweed, Redroot (redroot pigweed, Amaranthus retroflexus), ragweed (common ragweed, Ambrosia artemisiifolia), ryegrass, Italian (italian ryegrass, Lolium multiflorum), soybean (Glycine max), and wheat (Triticum aestivum) were planted into a blend of loam soil and sand and treated preemergence with a directed soil spray using test chemicals formulated in a non-phytotoxic solvent mixture which included a surfactant. At the same time, plants selected from these crops and weed species and also galium (catchweed bedstraw, Galium aparine) and horseweed (Erigeron canadensis) were planted in pots containing the same blend of loam soil and sand and treated with postemergence applications of test chemicals formulated in the same manner. Plants ranged in height from 2 to 10 cm and were in the one- to two-leaf stage for the postemergence treatment. Treated plants and untreated controls were maintained in a greenhouse for 10 days, after which time all treated plants were compared to untreated controls and visually evaluated for injury. Plant response ratings, summarized in Table A, are based on a 0 to 100 scale where 0 is no effect and 100 is complete control. A dash (-) response means no test result.

goosegrass [2] = assay: Test A postemergence; assay type: in vivo, Eleusine indica; conditions: 0 to 100 scale; for Plant response rating, Goosegrass: 1000 g ai/ha, Postemergence
Text: as §1

ragweed [3] = assay: Test A preemergence; assay type: in vivo, Ambrosia artemisiifolia
Text: as §1

blackgrass [4] = assay: Test A postemergence; assay type: in vivo, Alopecurus myosuroides; conditions: 0 to 100 scale; for Plant response rating, Blackgrass: 1000 g ai/ha, Postemergence
Text: as §1

horseweed = assay: Test A postemergence; assay type: in vivo, Erigeron canadensis; conditions: 0 to 100 scale; for Plant response rating, Horseweed: 1000 g ai/ha, Postemergence
Text: as §1

pigweed, palmer [5] = assay: Test A postemergence; assay type: in vivo, Amaranthus palmeri; conditions: 0 to 100 scale; for Plant response rating, Pigweed, Palmer: 1000 g ai/ha, Postemergence
Text: as §1

oat, wild [6] = assay: Test A preemergence; assay type: in vivo, Avena fatua; conditions: 125 g ai/ha, visual injury after 10 days, 0 to 100 scale, 0 is no effect, 100 is complete control
Text: as §1

blackgrass [7] = assay: Test A preemergence; assay type: in vivo, Alopecurus myosuroides
Text: as §1

corn [8] = assay: Test A postemergence; assay type: in vivo, Zea mays; conditions: 125 g ai/ha, postemergence, 10 days; 0 to 100 scale, 0 no effect, 100 complete control
Text: as §1

foxtail, giant [9] = assay: Test A postemergence; assay type: in vivo, Setaria faberi; conditions: 0 to 100 scale; for Plant response rating, Foxtail, Giant: 1000 g ai/ha, Postemergence
Text: as §1

ryegrass, Italian [10] = assay: Test A postemergence; assay type: in vivo, Lolium multiflorum; conditions: 0 to 100 scale; for Plant response rating, Ryegrass, Italian: 1000 g ai/ha, Postemergence
Text: as §1

wheat [11] = assay: Test A preemergence; assay type: in vivo, Triticum aestivum; conditions: 125 g ai/ha, visual injury after 10 days, 0 to 100 scale, 0 is no effect, 100 is complete control
Text: as §1

kochia [12] = assay: Test A preemergence; assay type: in vivo, Bassia scoparia
Text: as §1

kochia [13] = assay: Test A postemergence; assay type: in vivo, Bassia scoparia; conditions: 0 to 100 scale; for Plant response rating, Kochia: 1000 g ai/ha, Postemergence
Text: as §1

corn [14] = assay: Test A preemergence; assay type: in vivo, Zea mays; conditions: 125 g ai/ha, visual injury after 10 days, 0 to 100 scale, 0 is no effect, 100 is complete control
Text: as §1

soybean [15] = assay: Test A preemergence; assay type: in vivo, Glycine max; conditions: 125 g ai/ha, visual injury after 10 days, 0 to 100 scale, 0 is no effect, 100 is complete control
Text: as §1

goosegrass [16] = assay: Test A preemergence; assay type: in vivo, Eleusine indica
Text: as §1

foxtail, giant [17] = assay: Test A preemergence; assay type: in vivo, Setaria faberi
Text: as §1

pigweed, palmer [18] = assay: Test A preemergence; assay type: in vivo, Amaranthus palmeri
Text: as §1

ryegrass, Italian [19] = assay: Test A preemergence; assay type: in vivo, Lolium multiflorum
Text: as §1

oat, wild [20] = assay: Test A postemergence; assay type: in vivo, Avena fatua; conditions: 125 g ai/ha, postemergence, 10 days; 0 to 100 scale, 0 no effect, 100 complete control
Text: as §1

wheat [21] = assay: Test A postemergence; assay type: in vivo, Triticum aestivum; conditions: 125 g ai/ha, postemergence, 10 days; 0 to 100 scale, 0 no effect, 100 complete control
Text: as §1

soybean [22] = assay: Test A postemergence; assay type: in vivo, Glycine max; conditions: 125 g ai/ha, postemergence, 10 days; 0 to 100 scale, 0 no effect, 100 complete control
Text: as §1

galium = assay: Test A postemergence; assay type: in vivo, Galium aparine; conditions: 1000 g ai/ha, Postemergence; 0 to 100 scale
Text: as §1

[23] = 125 g ai/ha, postemergence, 10 days, 0 no effect, 100 complete control
[24] = 125 g ai/ha, visual injury after 10 days, 0 to 100 scale, 0 is no effect, 100 is complete control
[25] = 1000 g ai/ha, 0 to 100 scale (0 no effect, 100 complete control), 10 days

## CCC(C)c1ncn(-c2cccc(C(=O)N3C[C@H](C)Oc4c(C)cccc43)c2)n1 (stereo partly shown) [Compound 87]
Ragweed [1]; [23]
  Ragweed plant response rating: 50
Goosegrass [2]; [23]
  Goosegrass plant response rating: 30
Ragweed [3]; [24]
  Plant response rating, Ragweed: 0
Blackgrass [4]; [23]
  Blackgrass plant response rating: 10
horseweed; [23]
  Horseweed plant response rating: 0
pigweed, palmer [5]; [23]
  Pigweed, Palmer plant response rating: 30
oat, wild [6]
  Plant response rating, Oat, Wild: 20
Blackgrass [7]; [24]
  Plant response rating, Blackgrass: 40
Corn [8]
  Corn plant response rating: 10
foxtail, giant [9]; [23]
  Foxtail, Giant plant response rating: 10
ryegrass, Italian [10]; [23]
  Ryegrass, Italian plant response rating: 10
Wheat [11]
  Plant response rating, Wheat: 0
Kochia [12]; [24]
  Plant response rating, Kochia: 30
Kochia [13]; [23]
  Kochia plant response rating: 70
Corn [14]
  Plant response rating, Corn: 10
Soybean [15]
  Plant response rating, Soybean: 0
Goosegrass [16]; [24]
  Plant response rating, Goosegrass: 80
foxtail, giant [17]; [24]
  Plant response rating, Foxtail, Giant: 50
pigweed, palmer [18]; [24]
  Plant response rating, Pigweed, Palmer: 30
ryegrass, Italian [19]; [24]
  Plant response rating, Ryegrass, Italian: 100
oat, wild [20]
  Oat, Wild plant response rating: 20
Wheat [21]
  Wheat plant response rating: 10
Soybean [22]
  Soybean plant response rating: 40

## Cc1noc(-c2cccc(C(=O)N3C[C@H](C)Oc4c(Cl)cccc43)c2)n1 [Compound 121]
Ragweed [1]
  Plant response rating, Ragweed: 0
Goosegrass [2]
  Plant response rating, Goosegrass: 0
Ragweed [3]; [25]
  Plant response rating, Ragweed: 0
Blackgrass [4]
  Plant response rating, Blackgrass: 0
galium
  Plant response rating, Galium: 80
horseweed
  Plant response rating, Horseweed: 0
pigweed, palmer [5]
  Plant response rating, Pigweed, Palmer: 50
Blackgrass [7]; [25]
  Plant response rating, Blackgrass: 0
foxtail, giant [9]
  Plant response rating, Foxtail, Giant: 20
ryegrass, Italian [10]
  Plant response rating, Ryegrass, Italian: 0
Kochia [12]; [25]
  Plant response rating, Kochia: 0
Kochia [13]
  Plant response rating, Kochia: 70
Goosegrass [16]; [25]
  Plant response rating, Goosegrass: 0
foxtail, giant [17]; [25]
  Plant response rating, Foxtail, Giant: 60
pigweed, palmer [18]; [25]
  Plant response rating, Pigweed, Palmer: 60
ryegrass, Italian [19]; [25]
  Plant response rating, Ryegrass, Italian: 0

## Cc1csc(-c2cccc(C(=O)N3C[C@H](C)Oc4c(Cl)cccc43)c2)n1 [Compound 124]
Ragweed [1]
  Plant response rating, Ragweed: 0
Goosegrass [2]
  Plant response rating, Goosegrass: 0
Ragweed [3]; [25]
  Plant response rating, Ragweed: 0
Blackgrass [4]
  Plant response rating, Blackgrass: 0
galium
  Plant response rating, Galium: 30
horseweed
  Plant response rating, Horseweed: 0
pigweed, palmer [5]
  Plant response rating, Pigweed, Palmer: 60
Blackgrass [7]; [25]
  Plant response rating, Blackgrass: 0
foxtail, giant [9]
  Plant response rating, Foxtail, Giant: 40
ryegrass, Italian [10]
  Plant response rating, Ryegrass, Italian: 0
Kochia [12]; [25]
  Plant response rating, Kochia: 0
Kochia [13]
  Plant response rating, Kochia: 30
Goosegrass [16]; [25]
  Plant response rating, Goosegrass: 60
foxtail, giant [17]; [25]
  Plant response rating, Foxtail, Giant: 80
pigweed, palmer [18]; [25]
  Plant response rating, Pigweed, Palmer: 30
ryegrass, Italian [19]; [25]
  Plant response rating, Ryegrass, Italian: 60
